Measured values: patent US4550186A, “Binuclear copper (II) carboxylates formed from amine-carboxyboranes” (Duke University, priority 1983, dated 1985)

Biological target: T1, HMG CoA Reductase (Mus musculus, UniProt Q01237)
T1 construct: 10% homogenates of CF1 male mouse liver; from tissue; host or cells: CF1 male mouse liver, post-mitochondrial supernatant
T1 sequence (Q01237 1-887): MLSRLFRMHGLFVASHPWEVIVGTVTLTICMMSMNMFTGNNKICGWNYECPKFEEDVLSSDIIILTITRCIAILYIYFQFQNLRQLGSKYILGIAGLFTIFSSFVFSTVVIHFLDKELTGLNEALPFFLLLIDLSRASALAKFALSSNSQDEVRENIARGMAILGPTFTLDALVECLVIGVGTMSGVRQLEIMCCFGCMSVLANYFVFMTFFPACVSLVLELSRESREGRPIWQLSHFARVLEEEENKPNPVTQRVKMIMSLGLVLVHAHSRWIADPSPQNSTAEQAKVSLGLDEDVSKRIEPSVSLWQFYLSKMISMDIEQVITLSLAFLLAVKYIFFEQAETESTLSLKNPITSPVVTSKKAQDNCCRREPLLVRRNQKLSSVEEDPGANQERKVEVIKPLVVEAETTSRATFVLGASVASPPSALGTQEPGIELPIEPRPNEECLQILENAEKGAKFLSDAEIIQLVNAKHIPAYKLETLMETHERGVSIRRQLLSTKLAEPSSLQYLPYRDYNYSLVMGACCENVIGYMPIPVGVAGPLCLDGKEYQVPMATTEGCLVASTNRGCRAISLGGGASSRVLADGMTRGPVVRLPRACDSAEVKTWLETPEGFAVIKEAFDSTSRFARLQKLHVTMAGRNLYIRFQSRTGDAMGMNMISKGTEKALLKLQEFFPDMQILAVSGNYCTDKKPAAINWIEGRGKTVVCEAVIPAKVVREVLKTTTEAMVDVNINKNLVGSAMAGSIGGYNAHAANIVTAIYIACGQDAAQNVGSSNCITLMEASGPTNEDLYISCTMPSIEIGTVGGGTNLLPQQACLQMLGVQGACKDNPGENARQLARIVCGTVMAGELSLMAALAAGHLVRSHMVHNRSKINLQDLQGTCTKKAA
Test: In vitro liver enzyme study: HMG CoA reductase
Assay type: biochemical
Conditions: in vitro CF1 liver
Experimental: In vitro enzymatic studies were determined using 10% homogenates of CF1 male mouse liver with 50-200 μM of test drugs. In vivo enzymatic studies were determined using 10% homogenates of liver from CF1 male mice obtained after administering the agents for 16 days at a dose ranging from 2.5-20 mg/kg/day intraperitoneally. The liver homogenates for both in vitro and in vivo studies were prepared in 0.25M sucrose and 0.001M (ethylenedinitrilo)tetraacetic acid. Acetyl coenzyme A synthetase and adenosine triphosphate dependent citrate lyase activities were determined spectrophotometrically at 540 nm as the hydroxylamate of acetyl coenzyme A formed after 30 min at 37° C. Mitochondrial citrate exchange was determined by the procedure of Robinson et al [Eur. J. Biochem., 216, 63 (1970)] using ^14 C-sodium bicarbonate (41 mCi/mmol) incorporated into mitochondrial ^14 C-citrate after isolating rat mitochondria (9000 g×10 min) from the homogenates. The exchanges of the ^14 C-citrate were determined after incubating the mitochondrial fraction which was loaded with labeled citrate and test drugs for 10 min. Then the radioactivity was measured in the mitochondrial and supernantant fractions in scintillation fluid and expressed as a percentage. Cholesterol side chain oxidation was determined by the method of Kritchevsky and Tepper [Artherosclerosis, 18, 93 (1973)] using (26-^14 C) cholesterol (50 mCi/mmol) and mitochondria isolated from rat liver homogenates. […] Fatty acid synthetase activity was determined by the method of Brady et al [J. Biol. Chem., 235, 3093 (1960)] using [2-^14 C] malonyl-coenzyme A (37.5 mCi/mmol) which was incorporated into newly synthesized fatty acids that were extracted with ether and counted. Acyl transferase activity was determined with glycerol-3phosphate [L-2-^3 H(N)] […] HCl and counted. Phosphatidate phosphohydrolase activity was measured as the inorganic phosphate released after 30 min from phosphatidic acid by the method of Mavis et al [J. Lipid Res., 19, 467 (1978)]. […]

With “{Cu[(CH3)3 N.BH2 CO2 ]2.(CH3)3 N.BH2 COOH} [Compound I]” the “HMG CoA Reductase” value (50 μM) was 102 ± 8 Percent Control, the “HMG CoA Reductase” value (100 μM) was 101 ± 9 Percent Control and the “HMG CoA Reductase” value (200 μM) was 105 ± 8 Percent Control.
